In patent US11485700B2, “Synthesis of (+)-cannabinoids and their therapeutic effects” (SYMRISE AG, priority 2018, dated 2022):

Legend:
CB2 receptor [1] = target: T1, CB2 receptor (Homo sapiens (Human), UniProt P34972); assay: In vitro binding to CB2 receptor, [3H]-CP55940 radioligand displacement
Experimental: (§1) Compounds with an expected profile as CB1 and/or CB2 receptor ligands were evaluated by competition studies that allow determining the affinity of these compounds (Ki values) for both receptors against a classical cannabinoid ligand. The competition studies were conducted with membranes transfected with either CB1 or CB2 receptors. For stock solutions the compounds were dissolved at concentrations of 50 and 100 mM and stored at −20° C.
(§2) 96-well plates and the tubes necessary for the experiment were siliconized with Sigmacote (Sigma). Membranes were resuspended in the corresponding buffer and were incubated with the radioligand and each compound for 90 min at 30° C. Non-specific binding was determined with 10 μM WIN55212-2 and 100% binding of the radioligand to the membrane was determined by its incubation with membrane and without any compound. Filtration was performed by a Harvester®filtermate (Perkin-Elmer) with Filtermat A GF/C filters pretreated with polyethylenimine 0.05%. After filtering, the filter was washed nine times with binding buffer, dried and a melt-on scintillation sheet (Meltilex™ A, Perkin Elmer) was melted onto it. Then, radioactivity was quantified by a liquid scintillation spectrophotometer (Wallac MicroBeta Trilux, Perkin-Elmer).
(§3) Radioligand displacement assays were used to evaluate the affinity of the new compounds using membranes from cells (HEK293EBNA) transfected with the CB1 or the CB2 receptors and [^3H]-CP55940 as radioligand. The evaluation of the compounds was conducted in two phases. The first phase consisted in a simple screening with a unique and high concentration of each compound (40 μM). The data was collected from at least three experiments performed in triplicate. […] This consisted of a competition study with [^3H]CP55940 (0.10 nM for CB1 and 0.15 nM for CB2) and different concentrations of the selected compounds (10^−4-10^−11M). The data was analyzed, by using GraphPad Prism® version 5.01 (GraphPad Software Inc., San Diego, Calif., USA), for the calculation of Ki values expressed as mean±SEM of at least three experiments performed in triplicate for each point.

[2] = system: PolyIC-treated human keratinocytes (HaCat); assay: Poly I:C-induced proteases in human HaCat keratinocytes; format: cell-based; details: Poly I:C 10 μg/ml, 24 h
Experimental: (§4) Cell cultures: Human primary monocytes were extracted from the whole blood of medically healthy volunteers, who provided written informed consent at the local blood bank (University Hospital of Freiburg, Germany), following a standardized protocol (gradient preparation, Lymphocytes separation medium, PAN Biotech, P04-60125, Aidenbach, Germany) using completely endotoxin-free cultivation. Using 50 ml tubes, 25 ml Pancoll was loaded with 25 ml of blood (buffy coats). The gradient was established by centrifugation at 1800 rpm, 20° C. for 40 min with slow acceleration and deceleration. Peripheral blood mononuclear cells in the interphase were carefully removed and re-suspended in 50 ml pre-warmed phosphate-buffered saline (PBS) (Pan Biotech, P04-36500), followed by centrifugation for 10 min at 1600 rpm and 20° C. The supernatant was discarded and the pellet washed in 50 ml PBS and centrifuged as described above. The pellet was then re-suspended in 50 ml RPMI-1640 low-endotoxin medium supplemented with 10% human serum (Hexcell, Berlin, Germany, SP2080). After counting the number of cells in a particle counter (Euro Diagnostics, Krefeld, Germany), cells were seeded in 24-well plates for enzyme linked immunosorbent assay (ELISA) (2.2 mio. cells/well) or 96-well plates at a density of 2×10^4 cells/well for cell viability testing, and incubated at 37° C. with 5% CO2. The medium and the non-adherent cells (lymphocytes) were removed and fresh RPMI-1640 medium containing 1% human serum added. Enriched monocytes were then ready to be used for the experiments. Primary human fibroblasts and HaCat keratinocytes were obtained from the Uniklinik Freiburg. All cells were maintained in supplemented DMEM (Invitrogen, Life-Technologies, Darmstadt, Germany) medium containing 10% FBS (Bio&Sell, Feucht, Germany) and 1% antibiotics penicillin/streptomycin (from Invitrogen, DMEM complete medium) at 37° C. in a humidified atmosphere of 5% CO2.
Determination of MMPs and TIMPs in keratinocytes: Keratinocytes (HaCat) were cultivated as described above. Cells were seeded in 24-well plates incubated with Poly I:C (InvivoGen, San Diego, Calif.; USA, 10 μg/ml) in absence and presence of the cannabinoids (5 doses, n=3) for 24 h. Unstimulated cells served as a negative control. 24 h after cell stimulation, supernatants were removed, centrifuged and investigated for MMP1, MMP9 and TIMP1 concentrations by ELISAs according to the manufacturer's protocol (from Biotechne, Wiesbaden, Germany). The respective extinction was determined using a 96-well plate reader (Berthold, Offenburg, Germany).

CB1 receptor = CB1 receptor (Homo sapiens (Human), UniProt P21554); assay: In vitro binding to CB1 receptor, [3H]-CP55940 radioligand displacement
Experimental: as §1, §2, §3

[3] = system: IL-1-treated human dermal fibroblasts; assay: IL-1-induced inflammatory parameters in human dermal fibroblasts; format: cell-based; details: 24 h
[4] = system: LPS-treated human monocytes; assay: LPS-induced inflammatory parameters in human monocytes; format: cell-based; details: LPS 10 ng/ml, 24 h
Experimental: as §4
Measurement of cytokines and PGE2 in primary human monocytes: Cells were incubated with LPS (Sigma-Aldrich, Taufkirchen, Germany, 10 ng/ml) for 24 h. The cannabinoids (5 doses) were added 30 min before LPS treatment. After 24 h, supernatants were removed, centrifuged and investigated for IL-1beta, IL-8, IL-6, TNFalpha, MMP9, isoprostane, and PGE2 concentrations in EIAs (PGE2 and isoprostane, from Cayman/Biomol, Hamburg, Germany) or ELISAs (IL-1beta, Hiss, Freiburg, Germany; TNFalpha, IL-6 and IL-8, ImmunoTools, Frysoithe, Germany, MMP9, Biotechne, Wiesbaden, Germany) using manufacturer's protocol. The respective extinction was determined using a 96-well plate reader (Berthold, Offenburg, Germany). Each dose was analyzed 4 times in two buffy coats from 2 different donors (2 buffy coats used from 2 different healthy blood donors with final n=4 values).

primary human monocytes = assay: Cell viability in human monocytes (Alamar Blue); format: cell-based; details: 24 h
Experimental: Cell cultures: Human primary monocytes were extracted from the whole blood of medically healthy volunteers, who provided written informed consent at the local blood bank (University Hospital of Freiburg, Germany), following a standardized protocol (gradient preparation, Lymphocytes separation medium, PAN Biotech, P04-60125, Aidenbach, Germany) using completely endotoxin-free cultivation. Using 50 ml tubes, 25 ml Pancoll was loaded with 25 ml of blood (buffy coats). The gradient was established by centrifugation at 1800 rpm, 20° C. for 40 min with slow acceleration and deceleration. Peripheral blood mononuclear cells in the interphase were carefully removed and re-suspended in 50 ml pre-warmed phosphate-buffered saline (PBS) (Pan Biotech, P04-36500), followed by centrifugation for 10 min at 1600 rpm and 20° C. The supernatant was discarded and the pellet washed in 50 ml PBS and centrifuged as described above. […] Enriched monocytes were then ready to be used for the experiments. […]
Cell viability: Cells were incubated with the cannabinoids (3 doses, n=4) for 24 h. Cytotoxicity was analyzed by Alamar Blue staining (formazan). […] The plate was then incubated at 37° C. for 2 h in a humidified 5% CO2 atmosphere, and the color reaction determined using a 96-well plate reader (Berthold, Offenburg, Germany, excitation 544 nm, emission 590 nm). […]

[5] = system: IL-1-treated human dermal fibroblasts; assay: IL-1-induced inflammatory parameters in human dermal fibroblasts; format: cell-based; details: IL-1beta 10 U/ml, 24 h
Experimental: as §4
Determination of inflammatory molecules in fibroblasts: Primary human fibroblasts were cultivated as described above and seeded (500000 cells/well) in 24-well plates. Cells were incubated with IL-1beta (Roche, Mannheim, Germany, 10 U/ml) in absence and presence of the cannabinoids (5 doses, n=3) for 24 h. Unstimulated cells served as a negative control. 24 h after cell stimulation, supernatants were removed, centrifuged and investigated for IL-6, PGE2, and IL-8 concentrations by ELISAs according to the manufacturer's protocol (PGE2 from Cayman/Biomol, Hamburg, Germany; IL-6, and IL-8 from Immuno-tools, Frisoythe, Germany). The respective extinction is determined using a 96-well plate reader (Berthold, Offenburg, Germany).

CB2 receptor [6] = target: T1, CB2 receptor; assay: CB2 antagonistic activity, CRE-Luc assay in HEK 293T-CB2 cells; format: cell-based; details: WIN 55,212-2 repression of forskolin-induced CRE-Luc
Experimental: HEK 293T-CB1 and HEK 293T-CB2 cells (stably transfected with CB1 and CB2 cDNAs) (10^5/ml) were incubated in 24-well plates and transiently transfected with 0.5 μg/ml of the plasmid CRE-Luc that contains six consensus cAMP responsive elements (CRE) linked to firefly luciferase. Transient transfections were performed with Rotifect (Carl Roth GmbH, Karlsruhe, Germany) according to the manufacturer's instructions and harvested 24 h after transfection.
For CB2 antagonistic activity in cells the potential repression of Forskolin-induced CRE-luc inhibition induced by the compounds was analyzed.
After six hours of stimulation the cells were lysed (in 25 mM Tris-phosphate pH 7.8, 8 mM MgCl2, 1 mM DTT, 1% Triton X-100, and 7% glycerol) and luciferase activity was measured using an Autolumat LB 9501 (Berthold Technologies, Bad Wildbad, Germany) following the instructions of the luciferase assay kit (Promega, Madison, Wis.). The background obtained with the lysis buffer was subtracted in each experimental value, and the specific transactivation expressed as fold induction over basal levels (CRE-Luc).
The potential antagonistic activities of the compounds on the CB2 receptor were studied in the following. […] The negative control (untreated cells, 0% activation) is not listed.

[7] = maximal effect, doses up to 25 μM

Row | SMILES | Ki (CB2 receptor [1]) | inhibition of Poly I:C-stimulated TIMP1 [2, 7] | Ki (CB1 receptor) | CB1/CB2 selectivity (CB1 receptor; ratio of CB1-Ki to CB2-Ki) | dose that seems to be toxic in fibroblasts [3] | doses increasing LPS-induced IL-8 [4] | doses increasing LPS-mediated IL-1beta [4] | inhibition of LPS-induced IL-6 [4, 7] | inhibition of LPS-stimulated TNFalpha release [4, 7] | doses affecting cell viability (primary human monocytes) | doses inhibiting IL-1-stimulated IL-6 release [5] | doses inhibiting IL-1-stimulated IL-8 release [5] | inhibition of IL-1-induced PGE2 [5, 7] | doses enhancing Poly I:C-stimulated MMP1 [2] | CB2 antagonistic activity (CB2 receptor [6])
1 | C=C(C)[C@H]1CCC(C)=C[C@@H]1c1c(O)cc(CCCCC)c(C(=O)OC)c1O [(+)-CBD-ME, (+)-Cannabidiol methylester] | 28 nM | 40% | 345 nM | 12.3 | 25 µM | 5 to 25 µM | 25 µM | around 20% | around 20% |  |  |  |  |  | 
2 | C=C(C)[C@H]1CCC(C)=C[C@@H]1c1c(O)cc(CCC)cc1O [(+)-CBDV, (+)-Cannabidivarin] | 33.1 nM |  |  |  |  |  |  |  |  | ≥ 25 µM | ≥ 5 µM | ≥ 5 µM | more than 80% | 25 µM | 
3 | COc1ccc(C(=O)c2c(C)n(CCN3CCOCC3)c3cc(I)ccc23)cc1 [AM630] |  |  |  |  |  |  |  |  |  |  |  |  |  |  | prevented
